Assay results taken from US10793563B2, “GCN2 inhibitors and uses thereof” (Merck Patent GmbH, priority 2018, dated 2020).

Assays:
GCN2 kinase = GCN2 kinase (Homo sapiens (Human), UniProt Q9P2K8); assay: GCN2 Enzyme Inhibition Assay (Transcreener ADP2 fluorescence polarization); type: biochemical; conditions: 280 μM ATP, 200 μM (RS)7 peptide, 4 nM GCN2, 25° C.
How it was run: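 Transcreener ADP2 fluorescence polarization detection of ADP from 4 nM GCN2 with (RS)7 substrate in 25 mM Tris-HCl pH 7.5, 50 mM NaCl, 10 mM MgCl2, 1 mM DTT. Compound pre-incubated with enzyme 10 min at 25 °C; reaction started by ATP, run 1 h at 25 °C. IC50 and Ki(app) by tight-binding fit.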

[1] = target: intracellular GCN2 (phosphorylation of the GCN2 substrate eIF2α) (Homo sapiens (Human), UniProt Q9P2K8); assay: GCN2 Cellular Inhibition Assay (AlphaScreen SureFire P-eIF2α Ser51, borrelidin-treated U2OS cells); type: cell-based; conditions: 10 μM borrelidin, 1 h, phosphorylated eIF2α Ser51, read-out: GCN2 Biomarker (IC50)
intracellular GCN2 (phosphorylation of the GCN2 substrate eIF2α), sequence (Q9P2K8 whole entry): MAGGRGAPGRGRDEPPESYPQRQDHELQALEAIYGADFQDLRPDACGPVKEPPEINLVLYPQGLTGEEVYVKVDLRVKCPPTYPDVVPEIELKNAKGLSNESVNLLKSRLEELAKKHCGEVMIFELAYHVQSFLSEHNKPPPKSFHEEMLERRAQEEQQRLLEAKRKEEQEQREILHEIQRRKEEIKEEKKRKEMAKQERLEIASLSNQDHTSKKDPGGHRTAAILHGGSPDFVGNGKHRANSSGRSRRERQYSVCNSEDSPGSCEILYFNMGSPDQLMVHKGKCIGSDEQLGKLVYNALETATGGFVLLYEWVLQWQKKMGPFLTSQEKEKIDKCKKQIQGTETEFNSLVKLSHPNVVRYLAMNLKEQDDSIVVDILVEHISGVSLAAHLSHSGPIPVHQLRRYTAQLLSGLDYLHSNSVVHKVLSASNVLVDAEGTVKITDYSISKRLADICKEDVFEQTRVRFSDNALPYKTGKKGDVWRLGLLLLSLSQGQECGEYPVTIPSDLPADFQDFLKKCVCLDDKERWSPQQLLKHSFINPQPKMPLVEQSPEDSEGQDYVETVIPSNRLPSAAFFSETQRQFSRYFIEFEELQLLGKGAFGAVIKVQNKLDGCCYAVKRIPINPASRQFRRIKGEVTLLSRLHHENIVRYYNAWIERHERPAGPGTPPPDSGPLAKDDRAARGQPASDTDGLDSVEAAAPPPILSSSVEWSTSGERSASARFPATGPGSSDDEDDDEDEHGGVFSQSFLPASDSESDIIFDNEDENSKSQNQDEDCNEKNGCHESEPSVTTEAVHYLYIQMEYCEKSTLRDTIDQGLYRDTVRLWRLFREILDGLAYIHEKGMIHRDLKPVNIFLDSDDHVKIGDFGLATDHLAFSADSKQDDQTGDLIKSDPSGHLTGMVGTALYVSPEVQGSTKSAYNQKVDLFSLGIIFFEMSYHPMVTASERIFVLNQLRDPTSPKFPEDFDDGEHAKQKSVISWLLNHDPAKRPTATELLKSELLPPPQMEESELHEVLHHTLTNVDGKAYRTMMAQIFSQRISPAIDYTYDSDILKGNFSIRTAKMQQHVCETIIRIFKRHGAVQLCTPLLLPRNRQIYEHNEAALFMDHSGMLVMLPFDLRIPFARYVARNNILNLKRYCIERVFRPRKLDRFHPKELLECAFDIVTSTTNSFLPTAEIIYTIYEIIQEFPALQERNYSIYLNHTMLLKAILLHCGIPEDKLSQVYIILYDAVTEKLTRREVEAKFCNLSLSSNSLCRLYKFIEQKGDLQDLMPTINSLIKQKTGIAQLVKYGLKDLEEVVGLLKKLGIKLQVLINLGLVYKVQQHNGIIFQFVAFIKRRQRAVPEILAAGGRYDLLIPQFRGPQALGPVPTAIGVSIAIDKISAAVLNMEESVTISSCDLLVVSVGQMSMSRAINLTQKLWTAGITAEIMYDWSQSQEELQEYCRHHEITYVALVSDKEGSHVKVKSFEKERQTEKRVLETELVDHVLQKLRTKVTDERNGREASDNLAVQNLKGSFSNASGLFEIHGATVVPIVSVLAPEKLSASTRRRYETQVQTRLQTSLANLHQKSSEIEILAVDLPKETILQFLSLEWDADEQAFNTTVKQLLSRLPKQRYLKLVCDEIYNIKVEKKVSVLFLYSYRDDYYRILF
How it was run: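 U2OS cells adhered overnight, then given compound (top 40 μM, 4-fold serial dilutions) plus 10 μM borrelidin for 1 h at 37 °C. Lysates assayed for eIF2α phospho-Ser51 by AlphaScreen SureFire; % inhibition versus borrelidin-only wells.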

[2] = tested on: primary human pan T-cells; assay: Human IL-2 Assay for GCN2 Inhibition (IL-2 secretion from T cells in low amino acid condition); type: cell-based; conditions: IL-2 secretion from human T cells stimulated with anti-CD3/CD28 in low amino acid condition, ELISA; for EC50: Homo sapiens, T-cell, 96 h, read-out: IL2/T-cell EC50
How it was run: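 Pan T-cells (5×10^4/well) in RPMI lacking one amino acid (e.g. Trp, Arg) with 10% charcoal-stripped FBS; that amino acid titrated from none to 20 μM Trp or 950 μM Arg. Compound given 30 min at 37 °C before anti-CD3/CD28 bead stimulation; supernatant IL-2 by ELISA after 96 h; EC50 calculated.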

GCN2 kinase, sequence (Q9P2K8 whole entry): as above

SMILES | IC50 (GCN2 kinase) [nM] | IC50 [1] [nM] | EC50 [2] [nM] | IL2/T-cell EC50 ([2]; 96 hours)
C[C@H]1CN(c2nccc(-c3cnc4ccc(C(F)(F)F)cn34)n2)[C@@H](C)C(c2cn[nH]c2)N1 (stereo partly drawn) [I-170, 3-(2-((2S,5S)-2,5-dimethyl-3-(1H-pyrazol-4-yl)piperazin-1-yl)pyrimidin-4-yl)-6-(trifluoromethyl)imidazo[1,2-a]pyridine] | 10 to 100 | < 500 | 100 to 500 | 
NC(=O)[C@H]1CN(c2ccnc(-c3cnc4ccc(C(F)(F)F)cn34)n2)CCN1C1CC1 [I-323, (R)-1-cyclopropyl-4-(2-(6-(trifluoromethyl)imidazo[1,2-a]pyridin-3-yl)pyrimidin-4-yl)piperazine-2-carboxamide] | < 10 | 500 to 5000 | > 500 | 
Cc1[nH]ncc1[C@@H]1C[C@H](O)CN(c2ccnc(-c3cnc4ccc(C(F)(F)F)cn34)n2)C1 [I-314, (3 S,5S)-5-(3-Methyl-1H-pyrazol-4-yl)-1-[2-(6-trifluoromethyl-imidazo[1,2-a]pyridin-3-yl)-pyrimidin-4-yl]-piperidin-3-ol] | < 10 | < 500 |  | − (“−” for not active)
Cc1[nH]ncc1[C@H]1C[C@@H](O)CN(c2ccnc(-c3cnc4ccc(C(F)(F)F)cn34)n2)C1 [I-315, (3R,5R)-5-(3-Methyl-1H-pyrazol-4-yl)-1-[2-(6-trifluoromethyl-imidazo[1,2-a]pyridin-3-yl)-pyrimidin-4-yl]-piperidin-3-ol] | < 10 | < 500 | 100 to 500 | 
C[C@@H]1CN(c2nccc(-c3cnc4ccc(C(F)(F)F)cn34)n2)C[C@H](c2cn[nH]c2)O1 [I-127, 3-{2-[(2R,6S)-2-Methyl-6-(1H-pyrazol-4-yl)-morpholin-4-yl]-pyrimidin-4-yl}-6-trifluoromethyl-imidazo[1,2-a]pyridine] | < 10 | < 500 | < 100 | 
Cc1n[nH]cc1[C@@H]1CN(c2ccnc(-c3cnc4cc(Cl)c(C(F)(F)F)cn34)n2)C[C@H](C)O1 [I-359, (2S,6R)-4-(2-(7-chloro-6-(trifluoromethyl)imidazo[1,2-a]pyridin-3-yl)pyrimidin-4-yl)-2-methyl-6-(3-methyl-1H-pyrazol-4-yl)morpholine] | < 10 | < 500 | 100 to 500 | 
C[C@@H]1CN(c2nccc(-c3cnc4ccc(Cl)cn34)n2)C[C@H](c2cn[nH]c2)O1 [I-248, 6-Chloro-3-{2-[(2R,6S)-2-methyl-6-(1H-pyrazol-4-yl)-morpholin-4-yl]-pyrimidin-4-yl}-imidazo[1,2-a]pyridine] | < 10 | < 500 | 100 to 500 | 
